From the supplement of paper PMC10307832

Tests used:
Assay in all cases: relative viability (nuclei count vs DMSO), 5 days (fraction); higher = more cells survive
A-427 = test system: A-427
Method in brief: (§1)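 Lung cancer cell lines in 1536-well plates got either a single drug or a fixed anchor-drug dose together with five library-drug doses (not always all listed) in √10 steps, by pin tool, on the day after seeding. Nuclei were counted after 5 days, and relative viability is the treated-to-vehicle ratio of nuclei counts. Values are medians of duplicate plates.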

NCI-H1648 = test system: NCI-H1648
Method in brief: as §1

NCI-H2347 = test system: NCI-H2347
Method in brief: as §1

NCI-H1666 = test system: NCI-H1666
Method in brief: as §1

NCI-H1755 = test system: NCI-H1755
Method in brief: as §1

NCI-H2126 = test system: NCI-H2126
Method in brief: as §1

H3255 = test system: H3255
Method in brief: as §1

NCI-H3122 = test system: NCI-H3122
Method in brief: as §1

NCI-H23 = test system: NCI-H23
Method in brief: as §1

NCI-H2405 = test system: NCI-H2405
Method in brief: as §1

BEN = test system: BEN
Method in brief: as §1

NCI-H358 = test system: NCI-H358
Method in brief: as §1

NCI-H727 = test system: NCI-H727
Method in brief: as §1

NCI-H2087 = test system: NCI-H2087
Method in brief: as §1

ChaGo-K-1 = test system: ChaGo-K-1
Method in brief: as §1

NCI-H1437 = test system: NCI-H1437
Method in brief: as §1

NCI-H441 = test system: NCI-H441
Method in brief: as §1

EKVX = test system: EKVX
Method in brief: as §1

NCI-H322M = test system: NCI-H322M
Method in brief: as §1

Structure (SMILES): C=C1C(=O)O[C@@H](CCCCCCCC)[C@@H]1C(=O)O [C-75] + NC(=O)Nc1cc(-c2cccc(F)c2)sc1C(=O)N[C@H]1CCCNC1 [AZD7762] (partner 0.2 µM)
- relative viability (A-427; first compound 0.08 µM): 0.698
- relative viability (A-427; first compound 0.253 µM): 0.825
- relative viability (A-427; first compound 0.8 µM): 0.537
- relative viability (A-427; first compound 2.53 µM): 0.72
- relative viability (A-427; first compound 8 µM): 0.536
- relative viability (NCI-H1648; first compound 0.08 µM): 0.75
- relative viability (NCI-H1648; first compound 0.253 µM): 1.2
- relative viability (NCI-H1648; first compound 0.8 µM): 0.712
- relative viability (NCI-H1648; first compound 8 µM): 0.622
- relative viability (NCI-H2347; first compound 0.08 µM): 0.725
- relative viability (NCI-H2347; first compound 0.253 µM): 1
- relative viability (NCI-H2347; first compound 0.8 µM): 0.715
- relative viability (NCI-H2347; first compound 2.53 µM): 0.705
- relative viability (NCI-H2347; first compound 8 µM): 0.665
- relative viability (NCI-H1666; first compound 0.08 µM): 0.801
- relative viability (NCI-H1666; first compound 0.253 µM): 0.955
- relative viability (NCI-H1666; first compound 0.8 µM): 0.725
- relative viability (NCI-H1666; first compound 2.53 µM): 0.657
- relative viability (NCI-H1666; first compound 8 µM): 0.708
- relative viability (NCI-H1755; first compound 0.08 µM): 0.42
- relative viability (NCI-H1755; first compound 0.253 µM): 0.473
- relative viability (NCI-H1755; first compound 0.8 µM): 0.397
- relative viability (NCI-H1755; first compound 2.53 µM): 0.405
- relative viability (NCI-H1755; first compound 8 µM): 0.416
- relative viability (NCI-H2126; first compound 0.08 µM): 0.953
- relative viability (NCI-H2126; first compound 0.253 µM): 1.13
- relative viability (NCI-H2126; first compound 0.8 µM): 0.965
- relative viability (NCI-H2126; first compound 2.53 µM): 0.886
- relative viability (NCI-H2126; first compound 8 µM): 1.01
- relative viability (H3255; first compound 0.08 µM): 0.847
- relative viability (H3255; first compound 0.253 µM): 0.893
- relative viability (H3255; first compound 0.8 µM): 0.774
- relative viability (H3255; first compound 2.53 µM): 0.885
- relative viability (H3255; first compound 8 µM): 0.865
- relative viability (NCI-H3122; first compound 0.08 µM): 1.03
- relative viability (NCI-H3122; first compound 0.253 µM): 1.09
- relative viability (NCI-H3122; first compound 0.8 µM): 0.951
- relative viability (NCI-H3122; first compound 2.53 µM): 0.883
- relative viability (NCI-H3122; first compound 8 µM): 1.03
- relative viability (NCI-H23; first compound 0.08 µM): 0.255
- relative viability (NCI-H23; first compound 0.253 µM): 0.43
- relative viability (NCI-H23; first compound 0.8 µM): 0.263
- relative viability (NCI-H23; first compound 2.53 µM): 0.197
- relative viability (NCI-H23; first compound 8 µM): 0.376
- relative viability (NCI-H2405; first compound 0.08 µM): 0.689
- relative viability (NCI-H2405; first compound 0.253 µM): 0.4
- relative viability (NCI-H2405; first compound 0.8 µM): 0.831
- relative viability (NCI-H2405; first compound 2.53 µM): 0.67
- relative viability (NCI-H2405; first compound 8 µM): 0.764
- relative viability (BEN; first compound 0.08 µM): 0.676
- relative viability (BEN; first compound 0.253 µM): 0.729
- relative viability (BEN; first compound 0.8 µM): 0.589
- relative viability (BEN; first compound 2.53 µM): 0.633
- relative viability (BEN; first compound 8 µM): 0.627
- relative viability (NCI-H358; first compound 0.08 µM): 0.55
- relative viability (NCI-H358; first compound 0.253 µM): 0.531
- relative viability (NCI-H358; first compound 0.8 µM): 0.454
- relative viability (NCI-H358; first compound 2.53 µM): 0.456
- relative viability (NCI-H358; first compound 8 µM): 0.477
- relative viability (NCI-H727; first compound 0.08 µM): 0.694
- relative viability (NCI-H727; first compound 0.253 µM): 0.906
- relative viability (NCI-H727; first compound 0.8 µM): 0.4
- relative viability (NCI-H727; first compound 2.53 µM): 0.587
- relative viability (NCI-H727; first compound 8 µM): 0.388
- relative viability (NCI-H2087; first compound 0.08 µM): 1.59
- relative viability (NCI-H2087; first compound 0.253 µM): 1.23
- relative viability (NCI-H2087; first compound 0.8 µM): 1.07
- relative viability (NCI-H2087; first compound 2.53 µM): 1.3
- relative viability (NCI-H2087; first compound 8 µM): 1.09
- relative viability (ChaGo-K-1; first compound 0.08 µM): 0.857
- relative viability (ChaGo-K-1; first compound 0.253 µM): 0.921
- relative viability (ChaGo-K-1; first compound 0.8 µM): 0.777
- relative viability (ChaGo-K-1; first compound 2.53 µM): 0.603
- relative viability (ChaGo-K-1; first compound 8 µM): 0.812
- relative viability (NCI-H1437; first compound 0.08 µM): 1.11
- relative viability (NCI-H1437; first compound 0.253 µM): 1.09
- relative viability (NCI-H1437; first compound 0.8 µM): 1.09
- relative viability (NCI-H1437; first compound 2.53 µM): 1.09
- relative viability (NCI-H1437; first compound 8 µM): 1.15
- relative viability (NCI-H441; first compound 0.08 µM): 1.26
- relative viability (NCI-H441; first compound 0.253 µM): 1.3
- relative viability (NCI-H441; first compound 0.8 µM): 1.05
- relative viability (NCI-H441; first compound 8 µM): 1.06
- relative viability (EKVX; first compound 0.08 µM): 0.683
- relative viability (EKVX; first compound 0.253 µM): 0.765
- relative viability (EKVX; first compound 0.8 µM): 0.498
- relative viability (EKVX; first compound 8 µM): 0.51
- relative viability (NCI-H322M; first compound 0.08 µM): 0.587
- relative viability (NCI-H322M; first compound 0.253 µM): 0.684
- relative viability (NCI-H322M; first compound 0.8 µM): 0.552
- relative viability (NCI-H322M; first compound 8 µM): 0.587
